From PubChem BioAssay AID1918946 (Molecular Pharmacology Branch, DTP, NCI, 2023)

System: 885512-296-R-J2-PDC complex spheroid viability
Assay: Anticancer human tumor 885512-296-R-J2-PDC patient-derived breast carcinoma cell line growth inhibition
Settings: for IC50: curve of first compound; for viability, T/C: stronger effect = lower value
Summary of the method: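 Complex spheroids of tumor cells with HUVEC and human MSCs, exposed to iadademstat combined with other agents. Each agent tested in half-log steps from near clinical Cmax (else 10 microM top), DMSO ≤0.25%.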

[1] = second compound 0.1 µM, first compound 0.000949 µM
[2] = second compound 0.1 µM, first compound 0.003 µM
[3] = second compound 0.1 µM, first compound 0.00949 µM
[4] = second compound 0.1 µM, first compound 0.03 µM
[5] = second compound 0.1 µM, first compound 0.0949 µM
[6] = second compound 0.1 µM, first compound 0.3 µM
[7] = second compound 0.316 µM, first compound 0.000949 µM
[8] = second compound 0.316 µM, first compound 0.003 µM
[9] = second compound 0.316 µM, first compound 0.00949 µM
[10] = second compound 0.316 µM, first compound 0.03 µM
[11] = second compound 0.316 µM, first compound 0.0949 µM
[12] = second compound 0.316 µM, first compound 0.3 µM
[13] = second compound 1 µM, first compound 0.000949 µM
[14] = second compound 1 µM, first compound 0.003 µM
[15] = second compound 1 µM, first compound 0.00949 µM
[16] = second compound 1 µM, first compound 0.03 µM
[17] = second compound 1 µM, first compound 0.0949 µM
[18] = second compound 1 µM, first compound 0.3 µM
[19] = second compound 3.16 µM, first compound 0.000949 µM
[20] = second compound 3.16 µM, first compound 0.003 µM
[21] = second compound 3.16 µM, first compound 0.00949 µM
[22] = second compound 3.16 µM, first compound 0.03 µM
[23] = second compound 3.16 µM, first compound 0.0949 µM
[24] = second compound 3.16 µM, first compound 0.3 µM
[25] = second compound 10 µM, first compound 0.000949 µM
[26] = second compound 10 µM, first compound 0.003 µM
[27] = second compound 10 µM, first compound 0.00949 µM
[28] = second compound 10 µM, first compound 0.03 µM
[29] = second compound 10 µM, first compound 0.0949 µM
[30] = second compound 10 µM, first compound 0.3 µM
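Also: spheroids exposed to agents for 7 days before viability read.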

CC[C@@]1(O)C(=O)OCc2c1cc1n(c2=O)Cc2cc3c(CN(C)C)c(O)ccc3nc2-1 + NC1CCC(NC2CC2c2ccccc2)CC1
IC50 (second compound 0.1 µM): 517 pM
IC50 (second compound 0.316 µM): 571 pM
IC50 (second compound 1 µM): 480 pM
IC50 (second compound 3.16 µM): 497 pM
IC50 (second compound 10 µM): 398 pM
viability, T/C (second compound 0.1 µM, first compound 0.000316 µM): 74%
viability, T/C (second compound 0.1 µM, first compound 0.001 µM): 17.8%
viability, T/C (second compound 0.1 µM, first compound 0.00316 µM): 9.2%
viability, T/C (second compound 0.1 µM, first compound 0.01 µM): 3.46%
viability, T/C (second compound 0.1 µM, first compound 0.0316 µM): 7.41%
viability, T/C (second compound 0.1 µM, first compound 0.1 µM): 12.3%
viability, T/C (second compound 0.316 µM, first compound 0.000316 µM): 81.8%
viability, T/C (second compound 0.316 µM, first compound 0.001 µM): 19.7%
viability, T/C (second compound 0.316 µM, first compound 0.00316 µM): 7.03%
viability, T/C (second compound 0.316 µM, first compound 0.01 µM): 3.42%
viability, T/C (second compound 0.316 µM, first compound 0.0316 µM): 5.16%
viability, T/C (second compound 0.316 µM, first compound 0.1 µM): 7.04%
viability, T/C (second compound 1 µM, first compound 0.000316 µM): 66.9%
viability, T/C (second compound 1 µM, first compound 0.001 µM): 20.4%
viability, T/C (second compound 1 µM, first compound 0.00316 µM): 6.72%
viability, T/C (second compound 1 µM, first compound 0.01 µM): 5.59%
viability, T/C (second compound 1 µM, first compound 0.0316 µM): 3.12%
viability, T/C (second compound 1 µM, first compound 0.1 µM): 4.36%
viability, T/C (second compound 3.16 µM, first compound 0.000316 µM): 71.7%
viability, T/C (second compound 3.16 µM, first compound 0.001 µM): 16.6%
viability, T/C (second compound 3.16 µM, first compound 0.00316 µM): 5.15%
viability, T/C (second compound 3.16 µM, first compound 0.01 µM): 6.21%
viability, T/C (second compound 3.16 µM, first compound 0.0316 µM): 2.51%
viability, T/C (second compound 3.16 µM, first compound 0.1 µM): 2.21%
viability, T/C (second compound 10 µM, first compound 0.000316 µM): 59.4%
viability, T/C (second compound 10 µM, first compound 0.001 µM): 13.6%
viability, T/C (second compound 10 µM, first compound 0.00316 µM): 5.78%
viability, T/C (second compound 10 µM, first compound 0.01 µM): 3.89%
viability, T/C (second compound 10 µM, first compound 0.0316 µM): 2.72%
viability, T/C (second compound 10 µM, first compound 0.1 µM): 1.8%

CCc1c2c(nc3ccc(O)cc13)-c1cc3c(c(=O)n1C2)COC(=O)[C@]3(O)CC + NC1CCC(NC2CC2c2ccccc2)CC1
IC50 (second compound 0.1 µM): < 949 pM
IC50 (second compound 0.316 µM): < 949 pM
IC50 (second compound 1 µM): < 949 pM
IC50 (second compound 3.16 µM): < 949 pM
IC50 (second compound 10 µM): < 949 pM
viability, T/C [1]: 5.05%
viability, T/C [2]: 2.28%
viability, T/C [3]: 7.01%
viability, T/C [4]: 6.9%
viability, T/C [5]: 6.49%
viability, T/C [6]: 3.96%
viability, T/C [7]: 2.42%
viability, T/C [8]: 4.76%
viability, T/C [9]: 4.46%
viability, T/C [10]: 6.46%
viability, T/C [11]: 6.66%
viability, T/C [12]: 4.85%
viability, T/C [13]: 4.94%
viability, T/C [14]: 2.3%
viability, T/C [15]: 1.74%
viability, T/C [16]: 1.31%
viability, T/C [17]: 1.26%
viability, T/C [18]: 3.93%
viability, T/C [19]: 1.98%
viability, T/C [20]: 2.41%
viability, T/C [21]: 1.65%
viability, T/C [22]: 4.17%
viability, T/C [23]: 1.31%
viability, T/C [24]: 6.19%
viability, T/C [25]: 2.47%
viability, T/C [26]: 1.92%
viability, T/C [27]: 1.39%
viability, T/C [28]: 3.6%
viability, T/C [29]: 3.36%
viability, T/C [30]: 1.14%

COc1cc(C2c3cc4c(cc3C(OC3OC5COC(C)OC5C(O)C3O)C3COC(=O)C23)OCO4)cc(OC)c1O (stereo not given) + NC1CCC(NC2CC2c2ccccc2)CC1
IC50 (second compound 0.1 µM): 67800 pM
IC50 (second compound 0.316 µM): 60800 pM
IC50 (second compound 1 µM): 66800 pM
IC50 (second compound 3.16 µM): 77600 pM
IC50 (second compound 10 µM): 52800 pM
viability, T/C [3]: 118%
viability, T/C [4]: 95.8%
viability, T/C [5]: 31.2%
viability, T/C [6]: 11.3%
viability, T/C (second compound 0.1 µM, first compound 0.949 µM): 10.2%
viability, T/C (second compound 0.1 µM, first compound 3 µM): 11.3%
viability, T/C [9]: 108%
viability, T/C [10]: 90.7%
viability, T/C [11]: 24.3%
viability, T/C [12]: 11.8%
viability, T/C (second compound 0.316 µM, first compound 0.949 µM): 9.27%
viability, T/C (second compound 0.316 µM, first compound 3 µM): 8.79%
viability, T/C [15]: 104%
viability, T/C [16]: 86.4%
viability, T/C [17]: 33.4%
viability, T/C [18]: 13%
viability, T/C (second compound 1 µM, first compound 0.949 µM): 6.51%
viability, T/C (second compound 1 µM, first compound 3 µM): 4.74%
viability, T/C [21]: 98.9%
viability, T/C [22]: 105%
viability, T/C [23]: 39%
viability, T/C [24]: 10.7%
viability, T/C (second compound 3.16 µM, first compound 0.949 µM): 6.97%
viability, T/C (second compound 3.16 µM, first compound 3 µM): 9.62%
viability, T/C [27]: 90.8%
viability, T/C [28]: 64.6%
viability, T/C [29]: 35%
viability, T/C [30]: 14.2%
viability, T/C (second compound 10 µM, first compound 0.949 µM): 5.81%
viability, T/C (second compound 10 µM, first compound 3 µM): 4.68%

Nc1ccn(C2OC(CO)C(O)C2(F)F)c(=O)n1 (stereo not given) + NC1CCC(NC2CC2c2ccccc2)CC1
IC50 (second compound 0.1 µM): < 949 pM
IC50 (second compound 0.316 µM): < 949 pM
IC50 (second compound 1 µM): < 949 pM
IC50 (second compound 3.16 µM): < 949 pM
IC50 (second compound 10 µM): < 949 pM
viability, T/C [1]: 2.54%
viability, T/C [2]: 9.95%
viability, T/C [3]: 3.52%
viability, T/C [4]: 9.59%
viability, T/C [5]: 5.54%
viability, T/C [6]: 10.4%
viability, T/C [7]: 2.51%
viability, T/C [8]: 5.66%
viability, T/C [9]: 5.62%
viability, T/C [10]: 2.98%
viability, T/C [11]: 10%
viability, T/C [12]: 7.9%
viability, T/C [13]: 10.2%
viability, T/C [14]: 2.49%
viability, T/C [15]: 2.65%
viability, T/C [16]: 2.66%
viability, T/C [17]: 5.52%
viability, T/C [18]: 10.6%
viability, T/C [19]: 2.36%
viability, T/C [20]: 6.19%
viability, T/C [21]: 2.7%
viability, T/C [22]: 3.2%
viability, T/C [23]: 2.6%
viability, T/C [24]: 5.18%
viability, T/C [25]: 4.44%
viability, T/C [26]: 4.02%
viability, T/C [27]: 3.03%
viability, T/C [28]: 2.62%
viability, T/C [29]: 4.97%
viability, T/C [30]: 2.63%
